Read-outs that look alike come from different tables or passages of the source.
How the values were obtained:
Experiment in all cases: CellTiter Glo cell viability assay
[1] = tested on: Breast MCF7; format: cell-based, human; details: for IC50: Homo sapiens, MCF7, 72 h, 3 Days of treatment, 18 2-fold dilutions 5-0.00003 μM
Procedure, shortened: (§1)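 Cells seeded at 1.7*10^3/well in quadruplicate; compounds at 18 two-fold dilutions from 5 μM (0.000038146-5 μM), or at 1, 2, 5, 10 and 20 μM. CellTiter Glo luminescence read on days 1, 3 and 5 after treatment. IC50 by nonlinear regression of luminescence versus log dose.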

[2] = tested on: Colon HCT_116; format: cell-based, human; details: for IC50: Homo sapiens
Procedure, shortened: as §1

[3] = tested on: Connective Tissue Sarcoma HT-1080; format: cell-based, human; details: for IC50: Homo sapiens, HT-1080, 72 h, 3 Days of treatment, 18 2-fold dilutions 5-0.00003 μM
Procedure, shortened: as §1

[4] = tested on: Kidney HTB-45; format: cell-based, human; details: for IC50: Homo sapiens, 72 h, 3 Days of treatment, 18 2-fold dilutions 5-0.00003 μM
Procedure, shortened: as §1

[5] = tested on: Liver JHH-6; format: cell-based, human; details: for IC50: Homo sapiens, 72 h, 3 Days of treatment, 18 2-fold dilutions 5-0.00003 μM
Procedure, shortened: as §1

[6] = tested on: Lung NCI-H1048; format: cell-based, human; details: for IC50: Homo sapiens, NCI-H1048, 72 h, 3 Days of treatment, 18 2-fold dilutions 5-0.00003 μM
Procedure, shortened: as §1

[7] = tested on: Lung NCI-H1437; format: cell-based, human; details: for IC50: Homo sapiens
Procedure, shortened: as §1

[8] = tested on: Lung NCI-H1563; format: cell-based, human; details: for IC50: Homo sapiens
Procedure, shortened: as §1

[9] = tested on: Lung NCI-H661; format: cell-based, human; details: for IC50: Homo sapiens, NCI-H661, 72 h, 3 Days of treatment, 18 2-fold dilutions 5-0.00003 μM
Procedure, shortened: as §1

[10] = tested on: Osteosarcomas MG3; format: cell-based, human; details: for IC50: Homo sapiens, 72 h, 3 Days of treatment, 18 2-fold dilutions 5-0.00003 μM
Procedure, shortened: as §1

[11] = tested on: Osteosarcomas SJSA_1; format: cell-based, human; details: for IC50: Homo sapiens, SJSA-1, 72 h, 3 Days of treatment, 18 2-fold dilutions 5-0.00003 μM
Procedure, shortened: as §1

[12] = tested on: Pancreatic CAPAN-2; format: cell-based, human; details: for IC50: Homo sapiens, Capan-2, 72 h, 3 Days of treatment, 18 2-fold dilutions 5-0.00003 μM
Procedure, shortened: as §1

[13] = tested on: Tongue CAL 27; format: cell-based, human; details: for IC50: Homo sapiens
Procedure, shortened: as §1

[14] = tested on: Tongue SCC-25; format: cell-based, human; details: for IC50: Homo sapiens, SCC-25, 72 h, 3 Days of treatment, 18 2-fold dilutions 5-0.00003 μM
Procedure, shortened: as §1

[15] = tested on: Colon cancer HT-29/HTB-38; format: cell-based; details: Homo sapiens, 11 dilutions 3-0.00001 μM
Protocol: (§2) 1.7*10^3 cells/well were seeded in quadruplicates in 96-well plate after plating. Drugs were added at 5 μM and 2-fold dilutions over 18 concentrations (0.000038146-5 […] range) to generate a dose-response curve. Cell growth was assessed on day 1, 3 and 5 after drug treatments using the CellTiter Glo Luminescence Cell Viability Assay (Promega) according to manufacturer's protocol. Thermo Scientific Varioskan LUX Multimode Microplate instrument was used for plate reading. Data are expressed as mean luminescence (arbitrary units) ±S.D.
(§3) Cell Viability Assays were employed to determine the concentration of Compound 1 (KYN-001) and analogues where the response is reduced by half. For each treatment of cancer cells, 1, 2, 5, 10 and 20 μM solutions of compounds were applied. GraphPad Prism 7 software was used to fit dose response curves. Relative Luminescence Units were plotted against the log values of the doses used and the nonlinear regression model was used for data analysis.
(§4) IC50 (μM) values correspond to log(inhibitor) vs. response (four parameters) and dose-response graphs were generated using GraphPad Prism8.

[16] = tested on: Colon cancer SW620/CCL-227; format: cell-based; details: Homo sapiens, SW-620, 11 dilutions 3-0.00001 μM
Protocol: as §2, §3, §4

[17] = tested on: Liver cancer SNU-449/CRL-2234; format: cell-based; details: Homo sapiens, 11 dilutions 3-0.00001 μM
Protocol: as §2, §3, §4

[18] = tested on: Muscle Ewing's Sarcoma A-673/CRL-1598; format: cell-based; details: Homo sapiens, A673, 11 dilutions 3-0.00001 μM
Protocol: as §2, §3, §4

[19] = tested on: Neuroblastoma BE(2)-C/CRL-2268; format: cell-based; details: Homo sapiens, 11 dilutions 3-0.00001 μM
Protocol: as §2, §3, §4

[20] = tested on: Neuroblastoma CHP-212/CRL-2273; format: cell-based; details: Homo sapiens, 11 dilutions 3-0.00001 μM
Protocol: as §2, §3, §4

[21] = tested on: Neuroblastoma SK-N-DZ/CRL-2149; format: cell-based; details: Homo sapiens, 11 dilutions 3-0.00001 μM
Protocol: as §2, §3, §4

[22] = tested on: Neuroblastoma SK-N-FI/CRL-2142; format: cell-based; details: Homo sapiens, 11 dilutions 3-0.00001 μM
Protocol: as §2, §3, §4

[23] = tested on: Osteosarcoma MG-63/CRL-1427; format: cell-based; details: Homo sapiens, 11 dilutions 3-0.00001 μM
Protocol: as §2, §3, §4

[24] = tested on: Breast 4T1; format: cell-based; details: Table 5B: 11 dilutions 3-0.00001 μM; Exp N
Protocol: as §2, §3

[25] = HCT-116, 72 h, 3 Days of treatment, 18 2-fold dilutions 5-0.00003 μM, read-out: Average IC50
[26] = HCT-116, 120 h, Day 5 upon drug treatment, 10 dosages 0.0001-20 μM (Compound 8: 18 dosages 0.000038146 to 5 μM), read-out: IC50
[27] = NCI-H1437, 72 h, 3 Days of treatment, 18 2-fold dilutions 5-0.00003 μM, read-out: Average IC50
[28] = NCI-H1437/CRL-5872, 11 dilutions 3-0.00001 μM, read-out: IC50
[29] = NCI-H1563, 72 h, 3 Days of treatment, 18 2-fold dilutions 5-0.00003 μM, read-out: Average IC50
[30] = NCI-H1563/CRL-5875, 11 dilutions 3-0.00001 μM, read-out: IC50
[31] = CAL-27, 72 h, 3 Days of treatment, 18 2-fold dilutions 5-0.00003 μM, read-out: Average IC50
[32] = CAL 27/CRL-2095, 11 dilutions 3-0.00001 μM, read-out: IC50
[33] = IC50 of 1 [KYN-001] vs 8 [KYN-119], 3 Days

COc1cc(/C=C/c2cc(O)cc(OC)c2CC=C(C)C)ccc1O [Compound 1, (E)-3-(4-hydroxy-3-methoxystyryl)-5-methoxy-4-(3-methylbut-2-en-1-yl)phenol]
IC50 [1]: 694 nM
IC50 [2, 25]: 416 nM
IC50 [2, 26]: 165 nM
IC50 [3]: 36.7 nM
IC50 [4]: 1730 nM
IC50 [5]: 172 nM
IC50 [6]: 91.7 nM
IC50 [7, 27]: 347 nM
IC50 [7, 28]: 143 nM
IC50 [8, 29]: 449 nM
IC50 [8, 30]: 184 nM
IC50 [9]: 36.6 nM
IC50 [10]: 35.9 nM
IC50 [11]: 2.3 µM
IC50 [12]: 182 nM
IC50 [13, 31]: 56.8 nM
IC50 [13, 32]: 89.4 nM
IC50 [14]: 744 nM
IC50 [15]: 1560 nM
IC50 [16]: 121 nM
IC50 [17]: 81.8 nM
IC50 [18]: 471 nM
IC50 [19]: 67.1 nM
IC50 [20]: 28.1 nM
IC50 [21]: 132 nM
IC50 [22]: 116 nM
IC50 [23]: 44.1 nM
IC50 [24]: 117 nM

CCOc1cc(O)cc(/C=C/c2ccc(O)c(O)c2)c1CC=C(C)C [Compound 20, (E)-4-(3-Ethoxy-5-hydroxy-2-(3-methylbut-2-en-1-yl)styryl)benzene-1,2-diol]
IC50 [7, 28]: 73.2 nM
IC50 [8, 30]: 74.1 nM
IC50 [13, 32]: 40.9 nM
IC50 [15]: 1990 nM
IC50 [16]: 103 nM
IC50 [17]: 64 nM
IC50 [18]: 312 nM
IC50 [19]: 54.8 nM
IC50 [20]: 26.1 nM
IC50 [21]: 140 nM
IC50 [22]: 48.5 nM
IC50 [23]: 31.3 nM

COc1cc(/C=C/c2cc(O)cc(OC)c2CC=C(C)C)ccc1NC=O [Compound 27, (E)-N-(4-(5-hydroxy-3-methoxy-2-(3-methylbut-2-en-1-yl)styryl)-2-methoxyphenyl)formamide]
IC50 [7, 28]: 32.2 nM
IC50 [8, 30]: 59.8 nM
IC50 [13, 32]: 15 nM
IC50 [15]: 432 nM
IC50 [16]: 31.7 nM
IC50 [17]: 15.1 nM
IC50 [18]: 229 nM
IC50 [19]: 13.6 nM
IC50 [20]: 5.7 nM
IC50 [21]: 32.6 nM
IC50 [22]: 15.7 nM
IC50 [23]: 82.5 nM
IC50 [24]: 29.2 nM

CCOc1cc(O)cc(/C=C/c2ccc(NC=O)c(OC)c2)c1CC=C(C)C [Compound 28, (E)-N-(4-(3-Ethoxy-5-hydroxy-2-(3-methylbut-2-en-1-yl)styryl)-2-methoxyphenyl)formamide]
IC50 [7, 28]: 25.9 nM
IC50 [8, 30]: 15.9 nM
IC50 [13, 32]: 5 nM
IC50 [15]: 325 nM
IC50 [16]: 18 nM
IC50 [17]: 10.2 nM
IC50 [18]: 112 nM
IC50 [19]: 11.2 nM
IC50 [20]: 3 nM
IC50 [21]: 16.4 nM
IC50 [22]: 9.7 nM
IC50 [23]: 4.8 nM

CCOc1cc(O)cc(/C=C/c2ccc(O)c(OC)c2)c1CC=C(C)C [Compound 8, (E)-3-Ethoxy-5-(4-hydroxy-3-methoxystyryl)-4-(3-methylbut-2-en-1-yl)phenol]
IC50 [1]: 136 nM
Fold IC50 [1, 33]: 5.1
IC50 [2, 25]: 35.5 nM
IC50 [2, 26]: 28 nM
Fold IC50 [2, 33]: 12
IC50 [3]: 17.3 nM
Fold IC50 [3, 33]: 2.1
IC50 [4]: 463 nM
Fold IC50 [4, 33]: 3.7
IC50 [5]: 36.4 nM
Fold IC50 [5, 33]: 4.7
IC50 [6]: 14.5 nM
Fold IC50 [6, 33]: 6.3
IC50 [7, 27]: 16.6 nM
IC50 [7, 28]: 32.7 nM
Fold IC50 [7, 33]: 21
IC50 [8, 29]: 19.5 nM
IC50 [8, 30]: 54.5 nM
Fold IC50 [8, 33]: 23
IC50 [9]: 11.5 nM
Fold IC50 [9, 33]: 3.2
IC50 [10]: 6.88 nM
Fold IC50 [10, 33]: 5.2
IC50 [11]: 9.58 µM
Fold IC50 [11, 33]: 0.2
IC50 [12]: 9.75 nM
Fold IC50 [12, 33]: 19
IC50 [13, 31]: 38.3 nM
IC50 [13, 32]: 30.9 nM
Fold IC50 [13, 33]: 1.5
IC50 [14]: 276 nM
Fold IC50 [14, 33]: 2.7
IC50 [15]: 939 nM
IC50 [16]: 35.5 nM
IC50 [17]: 32.5 nM
IC50 [18]: 157 nM
IC50 [19]: 25.9 nM
IC50 [20]: 9.8 nM
IC50 [21]: 50.1 nM
IC50 [22]: 26.6 nM
IC50 [23]: 18.2 nM
